Results as given in article PMC7756583, “Hydroxamic Acids Immobilized on Resins (HAIRs): Synthesis of Dual‐Targeting HDAC Inhibitors and HDAC Degraders (PROTACs)” (Angewandte Chemie (International Ed. in English), 2020).
Values joined by “and” are separate entries in the source; they are usually repeats but may differ in a detail not shown here. Identical values can stand only once. “Also recorded” adds a separate entry of the source. Like-named read-outs stand apart in the source and are kept apart here.

Legend:
[1] = system: human tongue squamous cell carcinoma cell line Cal27; experiment: MTT cell viability assay, Cal27; assay type: cell-based; settings: for IC50: Homo sapiens, read-out: Antiproliferative Effect IC50 Cal27
HDAC1 [2] = biological target: T1, HDAC1 (Homo sapiens, UniProt Q13547); experiment: In-vitro human HDAC1 fluorogenic inhibition assay (ZMAL substrate); assay type: biochemical
T1 sequence (Q13547 whole entry): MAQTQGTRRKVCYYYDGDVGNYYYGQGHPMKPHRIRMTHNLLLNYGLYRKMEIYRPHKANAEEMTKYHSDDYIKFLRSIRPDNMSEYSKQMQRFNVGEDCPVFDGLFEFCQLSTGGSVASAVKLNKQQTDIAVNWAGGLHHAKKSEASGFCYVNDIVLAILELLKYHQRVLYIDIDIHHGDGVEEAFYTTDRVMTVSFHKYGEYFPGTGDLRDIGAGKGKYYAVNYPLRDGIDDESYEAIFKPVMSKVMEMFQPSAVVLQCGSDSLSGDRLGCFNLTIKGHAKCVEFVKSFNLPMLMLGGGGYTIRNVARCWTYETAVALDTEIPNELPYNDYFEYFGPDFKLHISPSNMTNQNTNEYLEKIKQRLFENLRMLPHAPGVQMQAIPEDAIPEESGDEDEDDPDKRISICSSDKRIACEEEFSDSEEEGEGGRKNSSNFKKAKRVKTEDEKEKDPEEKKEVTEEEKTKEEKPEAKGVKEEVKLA

[3] = system: human primary glioblastoma cell line U251; experiment: MTT cell viability assay, U251; assay type: cell-based; settings: Homo sapiens, read-out: Antiproliferative Effect IC50 U251
[4] = system: human primary glioblastoma cell line U87; experiment: MTT cell viability assay, U87; assay type: cell-based; settings: 72 h, read-out: Antiproliferative Effect IC50 U87
HDAC6 [5] = biological target: T2, HDAC6 (Homo sapiens, UniProt Q9UBN7); experiment: In-vitro human HDAC6 fluorogenic inhibition assay (ZMAL substrate); assay type: biochemical
T2 sequence (Q9UBN7 1-1215): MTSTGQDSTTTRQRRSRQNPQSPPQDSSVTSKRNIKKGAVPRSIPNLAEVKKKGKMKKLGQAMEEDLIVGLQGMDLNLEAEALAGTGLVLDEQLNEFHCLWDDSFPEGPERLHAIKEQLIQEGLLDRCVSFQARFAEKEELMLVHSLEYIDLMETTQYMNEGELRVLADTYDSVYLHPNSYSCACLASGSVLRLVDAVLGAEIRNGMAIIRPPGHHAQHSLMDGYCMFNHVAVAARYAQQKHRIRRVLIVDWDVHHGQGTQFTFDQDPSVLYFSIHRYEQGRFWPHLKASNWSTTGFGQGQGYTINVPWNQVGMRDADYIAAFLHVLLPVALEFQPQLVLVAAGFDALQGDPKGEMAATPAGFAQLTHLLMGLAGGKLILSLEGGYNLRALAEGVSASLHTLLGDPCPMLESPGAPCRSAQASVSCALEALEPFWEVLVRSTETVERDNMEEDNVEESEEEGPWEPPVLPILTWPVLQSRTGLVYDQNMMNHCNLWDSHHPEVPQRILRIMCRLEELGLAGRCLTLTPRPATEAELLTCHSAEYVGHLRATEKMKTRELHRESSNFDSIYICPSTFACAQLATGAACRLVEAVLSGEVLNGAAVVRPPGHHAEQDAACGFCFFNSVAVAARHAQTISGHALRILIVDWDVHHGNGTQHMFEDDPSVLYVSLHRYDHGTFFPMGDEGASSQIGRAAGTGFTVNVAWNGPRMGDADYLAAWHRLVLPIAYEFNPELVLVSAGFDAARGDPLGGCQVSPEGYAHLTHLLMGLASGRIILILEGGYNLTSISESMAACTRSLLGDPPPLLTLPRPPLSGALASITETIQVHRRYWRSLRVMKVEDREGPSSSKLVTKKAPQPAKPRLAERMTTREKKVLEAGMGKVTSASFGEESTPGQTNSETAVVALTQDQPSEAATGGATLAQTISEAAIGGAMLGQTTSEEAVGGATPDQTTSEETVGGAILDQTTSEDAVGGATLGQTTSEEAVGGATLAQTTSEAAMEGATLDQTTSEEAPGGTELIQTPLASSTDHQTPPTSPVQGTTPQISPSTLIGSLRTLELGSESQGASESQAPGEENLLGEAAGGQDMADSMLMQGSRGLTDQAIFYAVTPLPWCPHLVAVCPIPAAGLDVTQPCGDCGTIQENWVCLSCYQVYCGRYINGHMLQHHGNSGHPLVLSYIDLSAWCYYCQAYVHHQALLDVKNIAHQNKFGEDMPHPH

[6] = system: γ-H2AX formation in Cal27 cells; experiment: γ-H2AX expression DNA damage assay; assay type: cell-based, human
Cal27 cells = assay type: cell-based, human
human recombinant HDAC3 = human recombinant HDAC3 (Homo sapiens, UniProt O15379); experiment: In-vitro human HDAC3 fluorogenic inhibition assay (ZMAL substrate); assay type: biochemical
Sequence of human recombinant HDAC3 (O15379 whole entry): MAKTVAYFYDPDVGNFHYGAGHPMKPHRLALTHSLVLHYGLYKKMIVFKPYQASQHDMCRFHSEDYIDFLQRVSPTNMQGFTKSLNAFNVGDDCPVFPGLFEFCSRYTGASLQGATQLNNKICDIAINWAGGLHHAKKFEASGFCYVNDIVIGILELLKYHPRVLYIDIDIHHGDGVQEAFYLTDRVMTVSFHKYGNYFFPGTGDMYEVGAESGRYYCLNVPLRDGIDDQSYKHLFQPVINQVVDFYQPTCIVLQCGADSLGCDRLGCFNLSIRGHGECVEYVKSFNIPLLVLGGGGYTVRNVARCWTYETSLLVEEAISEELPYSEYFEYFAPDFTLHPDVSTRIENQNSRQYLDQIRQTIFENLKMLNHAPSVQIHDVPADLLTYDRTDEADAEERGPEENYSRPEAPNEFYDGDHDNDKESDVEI
Sequence of human recombinant HDAC3 (Q9Y618 395-489 partner limits assumed): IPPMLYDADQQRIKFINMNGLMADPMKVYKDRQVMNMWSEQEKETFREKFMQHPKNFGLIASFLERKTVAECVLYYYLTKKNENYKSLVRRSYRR

HDAC8 recombinant enzyme = biological target: T3, HDAC8 recombinant enzyme (Homo sapiens, UniProt Q9BY41); experiment: In-vitro human HDAC8 assay (Boc-Lys-(TFa)-AMC substrate); assay type: biochemical
T3 sequence (Q9BY41 1-377): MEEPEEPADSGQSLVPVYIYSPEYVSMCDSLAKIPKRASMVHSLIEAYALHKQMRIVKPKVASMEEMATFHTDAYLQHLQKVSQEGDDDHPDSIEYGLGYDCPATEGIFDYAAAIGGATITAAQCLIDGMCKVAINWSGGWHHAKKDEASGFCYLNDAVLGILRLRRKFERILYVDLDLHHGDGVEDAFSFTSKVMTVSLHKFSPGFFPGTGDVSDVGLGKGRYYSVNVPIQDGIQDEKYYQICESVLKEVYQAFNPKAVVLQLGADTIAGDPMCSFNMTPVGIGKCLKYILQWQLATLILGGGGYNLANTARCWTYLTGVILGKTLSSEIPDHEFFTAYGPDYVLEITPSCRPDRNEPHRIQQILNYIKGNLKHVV

human recombinant HDAC2 = human recombinant HDAC2 (Homo sapiens, UniProt Q92769); experiment: In-vitro human HDAC2 fluorogenic inhibition assay (ZMAL substrate); assay type: biochemical
Sequence of human recombinant HDAC2 (Q92769 whole entry): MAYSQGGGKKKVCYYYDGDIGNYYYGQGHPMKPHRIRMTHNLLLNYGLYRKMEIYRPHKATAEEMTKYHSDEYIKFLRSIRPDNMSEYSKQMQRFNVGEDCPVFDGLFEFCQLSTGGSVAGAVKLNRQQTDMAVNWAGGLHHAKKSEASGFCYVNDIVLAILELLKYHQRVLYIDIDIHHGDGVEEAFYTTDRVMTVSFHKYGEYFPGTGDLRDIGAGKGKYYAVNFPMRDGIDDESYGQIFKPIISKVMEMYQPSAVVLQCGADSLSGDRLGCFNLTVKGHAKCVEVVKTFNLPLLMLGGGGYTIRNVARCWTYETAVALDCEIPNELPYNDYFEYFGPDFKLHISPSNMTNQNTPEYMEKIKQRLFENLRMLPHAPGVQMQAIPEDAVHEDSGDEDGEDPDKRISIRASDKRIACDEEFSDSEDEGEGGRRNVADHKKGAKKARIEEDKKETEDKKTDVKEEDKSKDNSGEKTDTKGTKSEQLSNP

[7] = system: caspase 3/7 activation in Cal27 cells; assay type: cell-based, human
[8] = system: α-tubulin acetylation (marker of reduced HDAC6 activity); experiment: Immunoblot, acetylated α-tubulin in HL60 cells; assay type: cell-based
HDAC6 [9] = biological target: T2, HDAC6; experiment: Immunoblot, HDAC6 degradation in HL60 cells; assay type: cell-based; settings: 0.1 μM, 1 μM and 10 μM, 48 hours
[10] = system: histone H3 acetylation (marker of reduced HDAC1-3 activity); experiment: Immunoblot, acetyl histone H3 in HL60 cells; assay type: cell-based
HDAC1 [11] = biological target: T1, HDAC1; experiment: Immunoblot, HDAC1 degradation in HL60 cells; assay type: cell-based; settings: 0.1 μM, 1 μM and 10 μM, 48 hours
[12] = CAL-27, MTT assay, 72 h, n≥3, each in triplicate wells
[13] = fluorogenic assay, n≥2, each in duplicate wells, read-out: Target Inhibition IC50 HDAC1
[14] = U-251, MTT assay, 72 h, n≥3, each in triplicate wells, n.e.: no effect up to 100 μM
[15] = MTT assay, n≥3, each in triplicate wells
[16] = fluorogenic assay, n≥2, each in duplicate wells, read-out: Target Inhibition IC50 HDAC6
[17] = n≥2, each in duplicate wells, read-out: HDAC Inhibition IC50 HDAC 3
[18] = n≥2, each in duplicate wells, read-out: HDAC Inhibition IC50 HDAC 2

SMILES	IC50 [1, 12] [µM]	IC50 (HDAC1 [2]; [13]) [µM]	IC50 [3, 14] [µM]	IC50 [4, 15] [µM]	IC50 (HDAC6 [5]; [16]) [µM]	IC50 ([1]; CAL-27, 72 h) [µM]	IC50 (HDAC1 [2]) [µM]	IC50 ([3]; U-251, 72 h) [µM]	IC50 [4] [µM]	IC50 (HDAC6 [5]) [µM]	also measured
O=C(CCCCCCNC(=O)CCCc1ccc(N(CCCl)CCCl)cc1)NO [Compound 3 k]	–	–	–	–	–	6.17 ± 0.51	0.244 ± 0.041	27 ± 3.55	39.2 ± 7.16	0.063 ± 0.001	–
Cn1nnc2c(C(=O)NCc3ccc(/C=C/C(=O)NO)cc3)ncn2c1=O [Compound 3 l]	15.4 ± 1.61	0.146 ± 0.008	97.8 ± 9.07	141 ± 20.7	0.072 ± 0.008	–	–	–	–	–	γ-H2AX formation ([6]; Cal27 cells, IC50 (from MTT assay), 24 h): not different from control; γ-H2AX formation ([6]; Cal27 cells, fivefold IC50 (from MTT assay), 24 h): only weak DNA damage
O=C(/C=C/c1ccc(CNC(=O)CCCc2ccc(N(CCCl)CCCl)cc2)cc1)NO [Compound 3 n]	–	–	–	–	–	2.68 ± 0.31	0.151 ± 0.021	14.5 ± 1.59	19.8 ± 3.16	0.062 ± 0.001	induction of apoptosis (subG1 nuclei) (Cal27 cells): more potent than 3 o, cisplatin, vorinostat, and CAB in inducing apoptosis; improved antiproliferative effect in comparison to parent compound CAB [1]: up to 10 fold; IC50 (human recombinant HDAC3): 0.187 ± 0.009 µM; IC50 (HDAC8 recombinant enzyme): 4.04 ± 0.28 µM; IC50 (human recombinant HDAC2): 0.432 ± 0.015 µM; caspase 3/7 activation [7]: significantly more effective than the sum of the effects of 3 o and CAB; also recorded: significantly stronger than the sum of the effects of even 100 μM CAB and 30 μM 3 o; combination index (CI) [7]: 0,92 and 0,69 and 0,70; γ-H2AX formation [6]: significant increase in γ‐H2AX formation; also recorded: significantly more active than 3 l and 3 m; also recorded: significantly more effective than the sum of the effects of 3 o and CAB; also recorded: significantly greater DNA damage (γ‐H2AX assay) than 3 o
O=C(/C=C/c1ccc(CNC(=O)CCCc2ccccc2)cc1)NO [Compound 3 o]	6.59 ± 0.44	0.156 ± 0.008	23.9 ± 3.51	27.7 ± 6.52	0.066 ± 0.001	–	–	–	–	–	IC50 (human recombinant HDAC3; [17]): 0.117 ± 0.02 µM; IC50 (human recombinant HDAC2; [18]): 0.194 ± 0.034 µM
O=C(CCCCCCNC(=O)c1ccc(NC(=O)COCCOCCNC(=O)COc2cccc3c2C(=O)N(C2CCC(=O)NC2=O)C3=O)cc1)NO (stereo not drawn) [PROTAC 4]	–	0.174 ± 0.009	–	–	0.027	–	–	–	–	–	acetylation of α-tubulin [8]: significant hyperacetylation; IC50 (human recombinant HDAC3; [17]): 0.159 ± 0.031 µM; IC50 (HDAC8 recombinant enzyme; read-out: HDAC Inhibition IC50 HDAC 8): 3.42 ± 0.32 µM; IC50 (human recombinant HDAC2; [18]): 0.248 ± 0.049 µM; HDAC6 degradation (Western blot) (HDAC6 [9]): able to degrade especially HDAC6; acetylation of histone H3 [10]: significant hyperacetylation; HDAC1 degradation (Western blot) (HDAC1 [11]): also HDAC1 in a concentration dependent manner
Cn1c(CCCCCCC(=O)NO)nc2cc(N(CCCl)CCCl)ccc21 [tinostamustine, reference compound]	–	–	–	–	–	2.94 ± 0.07	0.047 ± 0.003	10.2 ± 0.62	8.32 ± 0.55	0.011 ± 0.001	–

Now from value to compound, other results behind:

IC50 [1, 12] [µM]	IC50 (HDAC1 [2]; [13]) [µM]	IC50 [3, 14] [µM]	IC50 [4, 15] [µM]	IC50 (HDAC6 [5]; [16]) [µM]	SMILES	IC50 ([1]; CAL-27, 72 h) [µM]	IC50 (HDAC1 [2]) [µM]	IC50 ([3]; U-251, 72 h) [µM]	IC50 [4] [µM]	IC50 (HDAC6 [5]) [µM]	also measured
9.9 ± 1.24	0.143 ± 0.005	48.2 ± 7.35	122 ± 56	0.038 ± 0.004	O=C(CCCCCCNC(=O)c1ncn2c(=O)n(CCCl)nnc12)NO [Compound 3 j]	–	–	–	–	–	–
3.56 ± 0.29	–	84.5 ± 7.3	57.4 ± 9.51	–	NC(=O)c1ncn2c(=O)n(CCCl)nnc12 [MTZ, mitozolomide, reference compound]	–	–	–	–	–	–
56.8 ± 5.05	–	457 ± 57.3	144 ± 15.6	–	Cn1nnc2c(C(N)=O)ncn2c1=O [TMZ, temozolomide, reference compound]	–	–	–	–	–	–
